This is an account of results in US10299475B2, “Pesticide” (ISHIHARA SANGYO KAISHA, LTD., priority 2013, dated 2019).

For this assay, the system named is Haemaphysalis longicornis (larvae). Nature of the assay: Test for examining effect on Haemaphysalis longicornis (larvae), coated vial contact test. It is filed as in vivo. The settings on record: 100 ppm solution coated on plastic vial, 20 larvae, 24 hours after contact, 25° C., constant dark, relative humidity 80-100%. An excerpt: Test for Examining Effect on Haemaphysalis longicornis (larvae)

As for `CC(C)CNC(=O)c1ccc(CCOc2cccc(Br)c2)cc1` [1-9, N-isobutyl-4-(2-(3-bromophenoxy)ethyl)benzamide], the mortality (usually the percentage killed) at 100 ppm was not below 90%. In the case of `CC(C)CNC(=O)c1ccc(CCOc2cccc(OC(F)(F)F)c2)cc1` [1-24, N-isobutyl-4-(2-(3-(trifluoromethoxy)phenoxy)ethyl)benzamide] it was not below 90%; in that of `CC(C)CNC(=O)c1ccc(CCOc2ccc(OC(F)(F)F)cc2)cc1` [1-25, N-isobutyl-4-(2-(4-(trifluoromethoxy)phenoxy)ethyl)benzamide], not below 90%. In the case of `CC(C)CNC(=O)c1ccc(CCOc2ccc(Cl)c(I)c2)cc1` [1-326, N-isobutyl-4-(2-(4-chloro-3-iodophenoxy)ethyl)benzamide], the mortality at 100 ppm was not below 90%. In the case of `CC(C)CNC(=O)c1ccc(CCOc2ccc(F)c(-c3ccccc3)c2)cc1` [4-6, N-isobutyl-4-(2-(4-fluoro-3-phenylphenoxy)ethyl)benzamide] it was not below 90%; in that of `CC(C)CNC(=O)c1ccc(CCOc2ccc(Cl)c(-c3ccc(Cl)cc3)c2)cc1` [4-115, N-isobutyl-4-(2-(4-chloro-3-(4-chlorophenyl)phenoxy)ethyl)benzamide], not below 90%. Compound `CC(C)CNC(=O)c1ccc(CCOc2cccc(-c3ccc(Cl)cc3Cl)c2)cc1` [4-187, N-isobutyl-4-(2-(3-(2,4-dichlorophenyl)phenoxy)ethyl)benzamide] displayed a mortality at 100 ppm not below 90%.
